Test results published in PubChem BioAssay (NCI).
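Five compound concentrations were applied to cells in 96-well plates for 48 hours; endpoints were derived by simple linear interpolation of the resulting dose-response curve. At the GI50, growth is halved. TGI: total growth inhibition.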

Columns and labels:
Test in all cases: NCI tumour cell line growth inhibition, 48 h; in the data active = GI50 below about 0.43 µM; inactive = the rest
A498 renal = test system: A498 renal
HCT-15 colon = test system: HCT-15 colon
LOX IMVI melanoma = test system: LOX IMVI melanoma
MALME-3M melanoma = test system: MALME-3M melanoma
MDA-MB-231 breast = test system: MDA-MB-231 breast
MDA-N = test system: MDA-N
OVCAR-3 ovarian = test system: OVCAR-3 ovarian
SF-295 CNS = test system: SF-295 CNS
SNB-19 CNS = test system: SNB-19 CNS
U251 CNS = test system: U251 CNS
ACHN renal = test system: ACHN renal

CCOC(=O)c1cc2c([nH]1)c(O)cc1c2ccn1Cc1ccccc1
28.1 µM: TGI (LOX IMVI melanoma)
28.2 µM: TGI (SNB-19 CNS)
49.1 µM: TGI (MDA-MB-231 breast)
30.5 µM: TGI (HCT-15 colon)
36.8 µM: TGI (MALME-3M melanoma)
82.4 µM: TGI (A498 renal)
29.5 µM: TGI (MDA-N)
31.6 µM: TGI (OVCAR-3 ovarian) | TGI (SF-295 CNS) | TGI (U251 CNS)

CCN(CC)CCn1nc(N)c2nc3ccccc3nc21
> 100 µM: TGI (A498 renal) | TGI (ACHN renal) | TGI (HCT-15 colon) | TGI (LOX IMVI melanoma) | TGI (MALME-3M melanoma) | TGI (MDA-N) | TGI (OVCAR-3 ovarian) | TGI (SF-295 CNS) | TGI (SNB-19 CNS) | TGI (U251 CNS)

CCOC(=O)c1c(NC(=O)c2cccs2)sc2c1CCC2
> 100 µM: TGI (A498 renal) | TGI (ACHN renal) | TGI (HCT-15 colon) | TGI (MDA-MB-231 breast) | TGI (MDA-N) | TGI (OVCAR-3 ovarian) | TGI (SF-295 CNS) | TGI (SNB-19 CNS)

CO/C(N)=C(\C#N)N=Cc1ccco1
> 100 µM: TGI (A498 renal) | TGI (ACHN renal) | TGI (HCT-15 colon) | TGI (LOX IMVI melanoma) | TGI (MALME-3M melanoma) | TGI (MDA-MB-231 breast) | TGI (MDA-N) | TGI (OVCAR-3 ovarian) | TGI (SF-295 CNS) | TGI (U251 CNS)

O=C1N=C(SC2OC(CO)C(O)C(O)C2O)S/C1=C\c1ccccc1 (configuration not stated)
> 100 µM: TGI (A498 renal) | TGI (ACHN renal) | TGI (HCT-15 colon) | TGI (LOX IMVI melanoma) | TGI (MALME-3M melanoma) | TGI (MDA-MB-231 breast) | TGI (MDA-N) | TGI (OVCAR-3 ovarian) | TGI (SF-295 CNS) | TGI (SNB-19 CNS)

Cc1cc(C)c2c(O)c(S(=O)(=O)c3ccc(Cl)cc3)c(=O)oc2c1
> 100 µM: TGI (A498 renal) | TGI (HCT-15 colon) | TGI (MALME-3M melanoma) | TGI (MDA-MB-231 breast) | TGI (MDA-N) | TGI (OVCAR-3 ovarian) | TGI (SF-295 CNS) | TGI (SNB-19 CNS) | TGI (U251 CNS)

OC1(c2ccccc2)C2CCN(CC2)C1CN1CCOCC1 (configuration not stated)
> 100 µM: TGI (A498 renal) | TGI (ACHN renal) | TGI (HCT-15 colon) | TGI (LOX IMVI melanoma) | TGI (MALME-3M melanoma) | TGI (MDA-MB-231 breast) | TGI (OVCAR-3 ovarian) | TGI (SF-295 CNS) | TGI (SNB-19 CNS) | TGI (U251 CNS)

COc1ccc2c(c1)C(=O)Cc1ccccc1CC2
> 100 µM: TGI (A498 renal) | TGI (ACHN renal) | TGI (HCT-15 colon) | TGI (LOX IMVI melanoma) | TGI (MALME-3M melanoma) | TGI (OVCAR-3 ovarian) | TGI (SF-295 CNS) | TGI (SNB-19 CNS) | TGI (U251 CNS)

CCC(C)(C)C1CCC2c3c([nH]c4ccccc34)C3C(=O)N(c4ccc(OC)cc4)C(=O)C3C2C1 (configuration not stated)
63 µM: TGI (MALME-3M melanoma)
> 100 µM: TGI (HCT-15 colon)
86.2 µM: TGI (SNB-19 CNS)
23.7 µM: TGI (LOX IMVI melanoma)
54.8 µM: TGI (U251 CNS)
32.3 µM: TGI (MDA-MB-231 breast)
64.2 µM: TGI (SF-295 CNS)
68.6 µM: TGI (MDA-N)
58.6 µM: TGI (ACHN renal)
7.28 µM: TGI (OVCAR-3 ovarian)

O=[N+]([O-])c1ccc2c(c1)S(=O)(=O)N1Cc3ccccc3CCN21
> 100 µM: TGI (A498 renal) | TGI (ACHN renal) | TGI (HCT-15 colon) | TGI (LOX IMVI melanoma) | TGI (MALME-3M melanoma) | TGI (MDA-MB-231 breast) | TGI (OVCAR-3 ovarian) | TGI (SF-295 CNS) | TGI (SNB-19 CNS) | TGI (U251 CNS)

N#Cc1c(=O)n(-c2ccccc2)c(O)c2c(N)n[nH]c12
> 100 µM: TGI (A498 renal) | TGI (HCT-15 colon) | TGI (LOX IMVI melanoma) | TGI (MALME-3M melanoma) | TGI (MDA-MB-231 breast) | TGI (MDA-N) | TGI (OVCAR-3 ovarian) | TGI (SNB-19 CNS) | TGI (U251 CNS)

Nc1cccnc1NCC1(CO)CCCC1
> 100 µM: TGI (A498 renal) | TGI (ACHN renal) | TGI (HCT-15 colon) | TGI (LOX IMVI melanoma) | TGI (MALME-3M melanoma) | TGI (MDA-MB-231 breast) | TGI (MDA-N) | TGI (OVCAR-3 ovarian) | TGI (SF-295 CNS) | TGI (U251 CNS)

CN1CCN(c2ccc3[nH]c(-c4cc(O)c5c(nc(CO)n5C)c4O)nc3n2)CC1
> 100 µM: TGI (ACHN renal) | TGI (HCT-15 colon) | TGI (MDA-N) | TGI (OVCAR-3 ovarian) | TGI (SF-295 CNS) | TGI (SNB-19 CNS)
65.4 µM: TGI (MALME-3M melanoma)
44.2 µM: TGI (U251 CNS)
63.1 µM: TGI (MDA-MB-231 breast)
37.9 µM: TGI (LOX IMVI melanoma)

CC(=O)c1sc2c(c1OC(=O)c1ccco1)c(=O)n(-c1ccccc1)c(=S)n2-c1ccccc1
49.2 µM: TGI (SF-295 CNS)
39.3 µM: TGI (LOX IMVI melanoma)
88.2 µM: TGI (SNB-19 CNS)
37.9 µM: TGI (MALME-3M melanoma)
> 100 µM: TGI (OVCAR-3 ovarian)
47.1 µM: TGI (MDA-MB-231 breast)
88.1 µM: TGI (U251 CNS)
82.6 µM: TGI (MDA-N)
41.9 µM: TGI (HCT-15 colon)

CC(=N)OC1CC2CCC1(C)C2(C)C (configuration not stated)
> 100 µM: TGI (A498 renal) | TGI (ACHN renal) | TGI (HCT-15 colon) | TGI (LOX IMVI melanoma) | TGI (MALME-3M melanoma) | TGI (MDA-MB-231 breast) | TGI (MDA-N) | TGI (OVCAR-3 ovarian) | TGI (SF-295 CNS) | TGI (U251 CNS)

OCCCNc1nc(=S)[nH]c2[nH]ncc12
48.2 µM: TGI (A498 renal)
> 100 µM: TGI (ACHN renal) | TGI (HCT-15 colon) | TGI (MALME-3M melanoma) | TGI (OVCAR-3 ovarian) | TGI (SF-295 CNS) | TGI (SNB-19 CNS) | TGI (U251 CNS)
84.5 µM: TGI (LOX IMVI melanoma)
inactive: GI50 (A498 renal) 13.3 µM | GI50 (ACHN renal) 40 µM | GI50 (HCT-15 colon) 81.9 µM | GI50 (LOX IMVI melanoma) 25.4 µM | GI50 (MALME-3M melanoma) 48.3 µM | GI50 (OVCAR-3 ovarian) 31.4 µM | GI50 (SF-295 CNS) 49 µM | GI50 (SNB-19 CNS) > 100 µM | GI50 (U251 CNS) 40.1 µM

COC(=O)C1=C(O)C(C(=O)OC)[C@]2(O)[C@H](C(=O)OC)[C@H]1C[C@@H](c1ccc(OC)c(OC)c1)[C@H]2C(=O)OC (some centres not stated)
62.5 µM: TGI (OVCAR-3 ovarian)
> 100 µM: TGI (ACHN renal) | TGI (MDA-MB-231 breast) | TGI (MDA-N)
36.5 µM: TGI (HCT-15 colon)
94.7 µM: TGI (SF-295 CNS)
25.3 µM: TGI (U251 CNS)
54.7 µM: TGI (A498 renal)
73.3 µM: TGI (SNB-19 CNS)
29.6 µM: TGI (LOX IMVI melanoma)

O=c1[nH]c(=O)n(CCOc2ccccc2)cc1Nc1ccccc1
> 100 µM: TGI (A498 renal) | TGI (ACHN renal) | TGI (HCT-15 colon) | TGI (LOX IMVI melanoma) | TGI (MALME-3M melanoma) | TGI (MDA-N) | TGI (OVCAR-3 ovarian) | TGI (SF-295 CNS) | TGI (SNB-19 CNS) | TGI (U251 CNS)

Ic1ccc2c(c1)N(c1ccccc1)c1cc(N=c3ccc4nc5ccc(I)cc5n(-c5ccccc5)c-4c3)ccc1N2
16.1 µM: TGI (OVCAR-3 ovarian)
> 100 µM: TGI (A498 renal) | TGI (ACHN renal) | TGI (HCT-15 colon) | TGI (MALME-3M melanoma) | TGI (MDA-MB-231 breast) | TGI (MDA-N) | TGI (SF-295 CNS) | TGI (SNB-19 CNS) | TGI (U251 CNS)

Cc1cc(S(=O)(=O)Nc2nc(N)n(-c3ccccn3)n2)c(S)cc1Cl
> 100 µM: TGI (A498 renal) | TGI (ACHN renal) | TGI (HCT-15 colon) | TGI (LOX IMVI melanoma) | TGI (MALME-3M melanoma) | TGI (MDA-MB-231 breast) | TGI (MDA-N) | TGI (OVCAR-3 ovarian) | TGI (SNB-19 CNS) | TGI (U251 CNS)

c1ccc2c(c1)CC1=C(O2)c2ccccc2OC1
59.2 µM: TGI (U251 CNS)
76.2 µM: TGI (MDA-MB-231 breast)
48.7 µM: TGI (OVCAR-3 ovarian)
40.2 µM: TGI (LOX IMVI melanoma)
> 100 µM: TGI (A498 renal) | TGI (ACHN renal) | TGI (MALME-3M melanoma) | TGI (SF-295 CNS)
45.5 µM: TGI (MDA-N)
72.6 µM: TGI (HCT-15 colon)
